Results published in patent publication US11807644B2 (PMV Pharmaceuticals, Inc., priority 2020, dated 2023).

These compounds were tested against T1, recombinant His-tag Y220C p53 DBD protein (Homo sapiens, UniProt P04637, Y220C) (assay: In vitro DNA binding activity assay (TR-FRET): binding of His-tag Y220C p53 DBD to biotin-labeled consensus DNA). Settings: SC150 = concentration to increase DNA binding by […], His-tag Y220C p53 DBD, biotin-labeled consensus DNA.
T1 construct: recombinant His-tag Y220C p53 DBD protein (amino acids #˜94-312)
Assay type: biochemical

| Compound | Y220C SC150 (μM) |
| --- | --- |
| CC(C)c1ccc(C(=O)NCc2nc(-c3cc4c(N[C@@H]5CCN(C)C[C@@H]5F)cccc4n3CC(F)(F)F)no2)s1 [Compound 444B, N-{[3-(4-{[(3S,4R)-3-fluoro-1-methylpiperidin-4-yl]amino}-1-(2,2,2-trifluoroethyl)-1H-indol-2-yl)-1,2,4-oxadiazol-5-yl]methyl}-5-(propan-2-yl)thiophene-2-carboxamide] | * (* = 0 μM ≤ SC150 < 0.1 μM) |
| CC(=O)NCc1nc(-c2cc3c(N[C@@H]4CCN(C)C[C@@H]4F)cccc3n2CC(F)(F)F)no1 [Compound 228B, N-{[3-(4-{[(3S,4R)-3-fluoro-1-methylpiperidin-4-yl]amino}-1-(2,2,2-trifluoroethyl)-1H-indol-2-yl)-1,2,4-oxadiazol-5-yl]methyl}acetamide] | * (* = 0 μM ≤ SC150 < 0.1 μM) |
| CN1CC[C@@H](Nc2cccc3c2cc(-c2noc(CNC(=O)c4cnn(C5CCCC5)c4)n2)n3CC(F)(F)F)[C@@H](F)C1 [Compound 312B, 1-cyclopentyl-N-{[3-(4-{[(3S,4R)-3-fluoro-1-methylpiperidin-4-yl]amino}-1-(2,2,2-trifluoroethyl)-1H-indol-2-yl)-1,2,4-oxadiazol-5-yl]methyl}-1H-pyrazole-4-carboxamide] | * (* = 0 μM ≤ SC150 < 0.1 μM) |
| CC(=O)N1CCC(Nc2cccc3c2cc(-c2noc(CNC(=O)C4CC4)n2)n3CC(F)(F)F)CC1 [Compound 161B, N-[(3-{4-[(1-acetylpiperidin-4-yl)amino]-1-(2,2,2-trifluoroethyl)-1H-indol-2-yl}-1,2,4-oxadiazol-5-yl)methyl]cyclopropanecarboxamide] | * (* = 0 μM ≤ SC150 < 0.1 μM) |
| CN1CCC(Nc2cccc3c2cc(-c2nnc(CNC(=O)Cc4ccccc4)s2)n3CC(F)(F)F)CC1 [Compound 59B, N-[(5-{4-[(1-methylpiperidin-4-yl)amino]-1-(2,2,2-trifluoroethyl)-1H-indol-2-yl}-1,3,4-thiadiazol-2-yl)methyl]-2-phenylacetamide] | ** (** = 0.1 μM ≤ SC150 < 0.5 μM) |
| F[C@H]1CNCC[C@H]1Nc1cccc2c1cc(-c1noc(CNc3ccn[nH]3)n1)n2CC(F)(F)F [Compound 214B, N-[(3S,4R)-3-fluoropiperidin-4-yl]-2-(5-{[(1H-pyrazol-5-yl)amino]methyl}-1,2,4-oxadiazol-3-yl)-1-(2,2,2-trifluoroethyl)-1H-indol-4-amine] | * (* = 0 μM ≤ SC150 < 0.1 μM) |
| COC[C@@H]1CCCN1c1cc(C(=O)NCc2nc(-c3cc4c(N[C@@H]5CCN(C)C[C@@H]5F)cccc4n3CC(F)(F)F)no2)cs1 [Compound 537B, N-{[3-(4-{[(3S,4R)-3-fluoro-1-methylpiperidin-4-yl]amino}-1-(2,2,2-trifluoroethyl)-1H-indol-2-yl)-1,2,4-oxadiazol-5-yl]methyl}-5-[(2S)-2-(methoxymethyl)pyrrolidin-1-yl]thiophene-3-carboxamide] | * (* = 0 μM ≤ SC150 < 0.1 μM) |
| CN1CC[C@@H](Nc2cccc3c2cc(-c2noc(CNC(=O)c4cn(CCF)cn4)n2)n3CC(F)(F)F)[C@@H](F)C1 [Compound 306B, N-{[3-(4-{[(3S,4R)-3-fluoro-1-methylpiperidin-4-yl]amino}-1-(2,2,2-trifluoroethyl)-1H-indol-2-yl)-1,2,4-oxadiazol-5-yl]methyl}-1-(2-fluoroethyl)-1H-imidazole-4-carboxamide] | * (* = 0 μM ≤ SC150 < 0.1 μM) |
| CN1CC[C@@H](Nc2cccc3c2cc(-c2noc(CNC(=O)c4ccn(C5CC5)c4)n2)n3CC(F)(F)F)[C@@H](F)C1 [Compound 218B, 1-cyclopropyl-N-{[3-(4-{[(3S,4R)-3-fluoro-1-methylpiperidin-4-yl]amino}-1-(2,2,2-trifluoroethyl)-1H-indol-2-yl)-1,2,4-oxadiazol-5-yl]methyl}-1H-pyrrole-3-carboxamide] | * (* = 0 μM ≤ SC150 < 0.1 μM) |
| CC(C)(C)n1cc(C(=O)NCc2nc(-c3cc4c(N[C@@H]5CCCC[C@@H]5F)cccc4n3CC(F)(F)F)no2)cn1 [Compound 331B, 1-tert-butyl-N-{[3-(4-{[(1R,2S)-2-fluorocyclohexyl]amino}-1-(2,2,2-trifluoroethyl)-1H-indol-2-yl)-1,2,4-oxadiazol-5-yl]methyl}-1H-pyrazole-4-carboxamide] | * (* = 0 μM ≤ SC150 < 0.1 μM) |
| COC(C)(C)c1cc(C(=O)NCc2nc(-c3cc4c(N[C@@H]5CCNC[C@@H]5F)cccc4n3CC(F)(F)F)no2)cs1 [Compound 489B, N-{[3-(4-{[(3S,4R)-3-fluoropiperidin-4-yl]amino}-1-(2,2,2-trifluoroethyl)-1H-indol-2-yl)-1,2,4-oxadiazol-5-yl]methyl}-5-(2-methoxypropan-2-yl)thiophene-3-carboxamide] | * (* = 0 μM ≤ SC150 < 0.1 μM) |
| C[C@H]1C[C@H]1C(=O)NCc1nnc(-c2cc3c(NC4CCN(C)CC4)cccc3n2CC(F)(F)F)s1 (racemic) [Compound 33B, (+/−)-(1R,2S)-2-methyl-N-[(5-{4-[(1-methylpiperidin-4-yl)amino]-1-(2,2,2-trifluoroethyl)-1H-indol-2-yl}-1,3,4-thiadiazol-2-yl)methyl]cyclopropane-1-carboxamide] | ** (** = 0.1 μM ≤ SC150 < 0.5 μM) |
| CN1CC[C@@H](Nc2cccc3c2cc(-c2noc(CNC(=O)c4cnc(C5(C)CCOCC5)s4)n2)n3CC(F)(F)F)[C@@H](F)C1 [Compound 473B, N-{[3-(4-{[(3S,4R)-3-fluoro-1-methylpiperidin-4-yl]amino}-1-(2,2,2-trifluoroethyl)-1H-indol-2-yl)-1,2,4-oxadiazol-5-yl]methyl}-2-(4-methyloxan-4-yl)-1,3-thiazole-5-carboxamide] | * (* = 0 μM ≤ SC150 < 0.1 μM) |
| CN1CCC(Nc2cccc3c2cc(-c2nnc(CNC(=O)C4CC4)s2)n3CC(F)(F)F)CC1 [Compound 35B, N-[(5-{4-[(1-methylpiperidin-4-yl)amino]-1-(2,2,2-trifluoroethyl)-1H-indol-2-yl}-1,3,4-thiadiazol-2-yl)methyl]cyclopropanecarboxamide] | * (* = 0 μM ≤ SC150 < 0.1 μM) |
| CN1CC[C@@H](Nc2cccc3c2cc(-c2noc(CNC(=O)c4ccn(C5CC(F)(F)C5)c4)n2)n3CC(F)(F)F)[C@@H](F)C1 [Compound 451B, 1-(3,3-difluorocyclobutyl)-N-{[3-(4-{[(3S,4R)-3-fluoro-1-methylpiperidin-4-yl]amino}-1-(2,2,2-trifluoroethyl)-1H-indol-2-yl)-1,2,4-oxadiazol-5-yl]methyl}-1H-pyrrole-3-carboxamide] | * (* = 0 μM ≤ SC150 < 0.1 μM) |
| CO[C@@H]1CCC[C@@H]1n1cc(C(=O)NCc2nc(-c3cc4c(N[C@@H]5CCN(C)C[C@@H]5F)cccc4n3CC(F)(F)F)no2)cn1 (racemic) [Compound 370B] | * (* = 0 μM ≤ SC150 < 0.1 μM) |
| CN1CCC(Nc2cccc3c2cc(-c2nnc(CNC(=O)C4CC4)o2)n3CC(F)(F)F)CC1 [Compound 110B, N-[(5-{4-[(1-methylpiperidin-4-yl)amino]-1-(2,2,2-trifluoroethyl)-1H-indol-2-yl}-1,3,4-oxadiazol-2-yl)methyl]cyclopropanecarboxamide] | *** (*** = 0.5 μM ≤ SC150 < 1 μM) |
| CC(C)(C)n1ccc(C(=O)NCc2nc(-c3cc4c(N[C@@H]5CCC(=O)NC5)cccc4n3CC(F)(F)F)no2)c1 [Compound 367B, 1-tert-butyl-N-{[3-(4-{[(3R)-6-oxopiperidin-3-yl]amino}-1-(2,2,2-trifluoroethyl)-1H-indol-2-yl)-1,2,4-oxadiazol-5-yl]methyl}-1H-pyrrole-3-carboxamide] | * (* = 0 μM ≤ SC150 < 0.1 μM) |
| COc1cc(S(C)(=O)=O)ccc1NCc1nc(-c2cc3c(N[C@@H]4CCNC[C@@H]4F)cccc3n2CC(F)(F)F)no1 (racemic) [Compound 188B, (+/−)-N-[(3R,4S)-3-fluoropiperidin-4-yl]-2-(5-{[(4-methanesulfonyl-2-methoxyphenyl)amino]methyl}-1,2,4-oxadiazol-3-yl)-1-(2,2,2-trifluoroethyl)-1H-indol-4-amine] | * (* = 0 μM ≤ SC150 < 0.1 μM) |
| CC(C)(C)N1CC[C@@H](Nc2cccc3c2cc(-c2noc(CNC(=O)c4ccn(C(C)(C)C)c4)n2)n3CC(F)(F)F)[C@@H](F)C1 [Compound 393B, 1-tert-butyl-N-{[3-(4-{[(3S,4R)-1-tert-butyl-3-fluoropiperidin-4-yl]amino}-1-(2,2,2-trifluoroethyl)-1H-indol-2-yl)-1,2,4-oxadiazol-5-yl]methyl}-1H-pyrrole-3-carboxamide] | * (* = 0 μM ≤ SC150 < 0.1 μM) |

Same assay, conditions: concentration to increase DNA binding by […], incubated at either 27° C. or 29° C. for 60 min

| Compound | SC150 (μM) |
| --- | --- |
| NC(=O)c1ccc(-c2cc3c(NC4CCS(=O)(=O)CC4)cccc3n2CC(F)(F)F)cc1 [Compound 1A, 4-{4-[(1,1-dioxo-1λ^6-thian-4-yl)amino]-1-(2,2,2-trifluoroethyl)-1H-indol-2-yl}benzamide] | ++++ (++++ = 10 μM ≤ SC150 < 35 μM) |
| O=S1(=O)CCC(Nc2cccc3c2cc(-c2ccc(CNc4ccccc4)cc2)n3CC(F)(F)F)CC1 [Compound 9A, 4-[(2-{4-[(phenylamino)methyl]phenyl}-1-(2,2,2-trifluoroethyl)-1H-indol-4-yl)amino]-1λ^6-thiane-1,1-dione] | +++ (+++ = 5 μM ≤ SC150 < 10 μM) |
| CC(C)(C)OC(=O)NCc1ccc(-c2cc3c(NC4CCS(=O)(=O)CC4)cccc3n2CC(F)(F)F)cc1 [Compound 6A, tert-butyl N-[(4-{4-[(1,1-dioxo-1λ^6-thian-4-yl)amino]-1-(2,2,2-trifluoroethyl)-1H-indol-2-yl}phenyl)methyl]carbamate] | ++ (++ = 2 μM ≤ SC150 < 5 μM) |
